Assay results: US20220395555A1, “Derivatives of antibiotics” (priority 2020, published 2022)

Test system: resistant strains of fungi (Candida spp., Microsporium, Trich. mentagrophytes, Aspergillus niger)
Assay: Antifungal activity on the resistant strains
Assay type: cell-based
Settings: resistant fungal strains

SMILES	antifungal activity, in words
C[C@@H]1[C@H](O)[C@@H](C)/C=C/C=C/C=C/C=C/C=C/C=C/C=C/[C@H](O[C@@H]2O[C@H](C)[C@@H](O)[C@H](N)[C@@H]2O)C[C@@H]2O[C@](O)(C[C@@H](O)C[C@@H](O)[C@H](O)CC[C@@H](O)C[C@@H](O)CC(=O)O[C@H]1C)C[C@H](O)[C@H]2C(=O)O [amphotericin]	did not exert antifungal activity
C[C@@H]1[C@H](O)[C@@H](C)/C=C/C=C/CC/C=C/C=C/C=C/C=C/C(O[C@H]2O[C@H](C)[C@@H](O)[C@H](N)[C@@H]2O)CC2O[C@](O)(CC(O)C(O)CCC(O)CC(O)CC(O)CC(=O)O[C@H]1C)CC(O)C2C(=O)O (some centres unmarked) [nystatin]	did not exert antifungal activity
